Laboratory results taken from patent publication US5719143A, “Polysubstituted 3-acylamino-5-phenyl-1, 4-benzodiazepin-2-one derivatives, process for their preparation and the pharmaceutical compositions containing them” (Sanofi, priority 1994, dated 1998).

Key:
biliary emptying = experiment: in vivo biliary emptying model in fasted mice; settings: Mus musculus, po, 1 h, administered orally one hour before the sacrifice, bile vesicle weight
Method: The compounds are administered orally one hour before the sacrifice. The bile vesicle is removed and then weighed and the results, expressed in mg/kg of body weight, reveal for the compound of Example 10, for example, an ED50 of 0.3 mg/kg.

CCKA receptors = experiment: in vitro affinity measurement, CCKA receptors; assay type: binding
Method: These compounds have formed the subject of in vitro affinity measurement studies concerning the CCKA receptors.
(§1) This affinity is between 0.5 and 100 nM with a selectivity for the CCKA receptors over the CCKB receptors which may reach a factor of 10,000 for the compound of Example 1, for example.

CCKB receptor = experiment: in vitro affinity measurement, CCKB receptor; assay type: binding
Method: as §1

COc1cc(C)cc(OC)c1C1=NC(NC(=O)c2cc3ccccc3[nH]2)C(=O)N(C)c2ccccc21 (single isomer, unassigned; (+)) [Example 10, (+)-N-[2,3-dihydro-5-(2,6-dimethoxy-4-methylphenyl)-1-methyl-2-oxo-1H-1,4-benzodiazepin-3-yl]-1H-indole-2-carboxamide]
ED50 (biliary emptying): 0.3 mg/kg

COc1cc(C)cc(OC)c1C1=NC(NC(=O)c2cc3ccccc3[nH]2)C(=O)N(C)c2ccccc21 (stereo not shown) [Example 1, N-[2,3-dihydro-5-(2,6-dimethoxy-4-methylphenyl)-1-methyl-2-oxo-1H-1,4-benzodiazepin-3-yl]-1H-2-indolecarboxamide]
selectivity for the CCKA receptors over the CCKB receptors (factor) (CCKA receptors): 10,000

COc1cc(C)cc(OC)c1C1=NC(NC(=O)Nc2cccc(C)c2)C(=O)N(C)c2ccccc21 (stereo not shown) [Example 6, 1,3-dihydro-5-(2,6-dimethoxy-4-methylphenyl)-1-methyl-3-(3-methylphenylureido)-1,4-benzodiazepin-2-one]
affinity for the CCKB receptor compared with that for the CCKA receptor (CCKB receptor): identical to or greater than that obtained for the CCKA receptor

COc1cc(OC)c(C2=NC(NC(=O)Nc3cccc(C)c3)C(=O)N(C)c3ccccc32)c(OC)c1 (stereo not shown) [Example 7, 1,3-dihydro-1-methyl-3-(3-methylphenylureido)-5-(2,4,6-trimethoxyphenyl)-1,4-benzodiazepin-2-one]
affinity for the CCKB receptor compared with that for the CCKA receptor (CCKB receptor): identical to or greater than that obtained for the CCKA receptor
